{"source": "patent US7153886B2", "about": "“Method for treatment of peripheral inflammation of a loop ileal artificial anus” (Tanabe Seiyaku Co., Ltd., priority 1999, dated 2006)", "key": {"[1]": {"test_system": "ileum pouchitis accompanying with acute hemorrhagic ulcer", "experiment": "Clinical effects in ileum pouchitis", "format": "in vivo, human patient", "settings": "Experiment 11, person; granules 1.5 g in water through the anus twice a day for about 4 months", "description": "The patient was a person. During the postoperative treatment, ileum pouchitis accompanying with acute hemorrhagic ulcer appeared at the ileum pouch which was subjected to ileal pouch/anal anastomosis by the operation for ulcerative colitis. Ecabet sodium was administered to the patient mentioned above. That is, Ecabet sodium-containing granules (1.5 g) were suspended in water, and the resultant was injected through the anus twice a day for about 4 months."}, "[2]": {"test_system": "large and small intestine Crohn's disease", "experiment": "Clinical effects in a patient of Crohn's disease", "format": "in vivo, human patient", "settings": "person; one year after the start of the administration", "description": "The patient was a person, whose illness was diagnosed from the pathological data as large and small intestine Crohn's disease. The exacerbation and the remission were mutually repeated, and the patient was treated with a conventional medicine, but the exacerbation of the anal lesion and the bleeding at the intestine could not be controlled. Although a surgical excision of the lesion was considered, the area of the lesion was so large that it could not be excised, and therefore, a loop ileal artificial anus was installed for administration of Ecabet sodium. Ecabet sodium was administered to the patient mentioned above. That is, Ecabet sodium-containing granules (1.5 g) were pulverized in a mortar, suspended in water, and the resultant was directly administered into the intestine through the artificial anus once a day."}, "[3]": {"test_system": "intestinal mucosal injury induced by intra-intestinal infusion of acetic acid", "experiment": "Prophylactic or therapeutic effect on acetic acid-induced intestinal injury", "format": "in vivo", "settings": "Fischer rats", "from_the_text": "Sulfodehydroabietic acid monosodium salt […] (hereinafter referred to as Ecabet sodium) of the active ingredient of the present invention was previously administered to Fischer rats, and the prophylactic or therapeutic effect thereof on intestinal mucosal injury induced by intra-intestinal infusion of acetic acid was studied. Namely, granules containing Ecabet sodium (0.5 g, trade name: Gastrome granule, containing 1.0 g of Ecabet sodium per 1.5 g, hereinafter simply referred to as Ecabet sodium-containing granules) were suspended in a physiological saline, and the mixture was injected intra-rectally to Fischer rats. One hour thereafter, a 25% acetic acid solution was intra-rectally injected to the rats. Two hours after the administration of acetic acid, the intestine was excised from the rats, and the histopathological changes in the surface of the intestinal inner wall was observed visually and with a microscope, and the injury of the intestinal mucosa was evaluated both macroscopically and histologically. In the control group, the same procedures were repeated except for that a physiological saline was administered instead of a suspension of Ecabet sodium-containing granules in a physiological saline. […] In addition, the degree of the intestine mucosal injury between the physiological saline-treated group and the Ecabet sodium-treated group was scored and compared according to the criteria as mentioned below, which was based on the method for Classification and Evaluation of Macpherson, B. R. et al., Digestion, 17, p. 135–150 (1978). The data is indicated in Table 1. • (1) Scoring criteria of degree of macroscopic injury: [table] • (2) Scoring criteria of degree of histological injury: [table]"}, "[4]": {"test_system": "TNBS-induced enteritis; mucosal injury of the intestine induced by acetic acid", "experiment": "Effect on TNBS-induced enteritis (followed by acetic acid)", "format": "in vivo, Fischer rats", "description": "Ecabet sodium of the active ingredient of the present invention was administered to Fischer rats to which TNBS was previously intra-intestinally injected to induce chronic enteritis, and further acetic acid was administered to the rats. Prophylactic or therapeutic effect of Ecabet sodium on the mucosal injury of the intestine induced by acetic acid was studied.\nNamely, a solution of TNBS (2,4,6-trinitrobenzenesulfonic acid) in 50% ethanol was injected intra-intestinally to Fischer rats at a dose of 50 mg per 1 kg of the body weight to give the TNBS-induced enteritis. Three weeks thereafter, Ecabet sodium-containing granules (0.5 g) was suspended in a physiological saline, and the mixture was administered intra-rectally to the rats. Thirty minutes thereafter, a 25% acetic acid solution was intra-rectally injected to the rats, and two hours after the acetic acid administration, the intestine was excised from the rats, and the intestinal mucosal injury thereof was scored and evaluated both macroscopically and histologically in the same manner as in Experiment 1 according to the Macpherson's method for Classification and Evaluation. In the control group, the same procedures were repeated except for that a physiological saline was administered instead of a suspension of Ecabet sodium-containing granules in a physiological saline."}, "[5]": {"test_system": "acute hemorrhagic rectal ulcer", "experiment": "Clinical effects in acute hemorrhagic rectal ulcer (Experiments 8-10)", "format": "in vivo, human patient", "description": "The patient was a person, who was hospitalized for treatment of HCV-associated hepatocirrhosis, hepatocellular carcinoma and esophageal varices. After the endoscopic ossification treatment for the esophageal varices was done, an acute hemorrhagic rectal ulcer appeared at whole of the lower rectum. The patient was treated with total parenteral nutrition for 52 days, but the conditions were not improved. Ecabet sodium was administered to the patient mentioned above. That is, Ecabet sodium-containing granules (1.5 g) were suspended in water, and the resultant was injected through the anus twice a day for about 1.5 month. […] The patient was a person, who was hospitalized for treatment of the right thighbone break. During the treatment thereof, an acute hemorrhagic rectal ulcer occurred at whole of the lower rectum. The patient was treated with total parenteral nutrition, but the conditions were not improved. Ecabet sodium was administered to the patient mentioned above. That is, Ecabet sodium-containing granules (1.5 g) were suspended in water, and the resultant was injected through the anus twice a day for about 2.5 months. […] The patient was a person, who was hospitalized for treatment of pancreatic cancer. During the treatment, an acute hemorrhagic rectal ulcer appeared at whole of the lower rectum. Ecabet sodium was administered to the patient mentioned above. That is, Ecabet sodium-containing granules (1.5 g) were suspended in water, and the resultant was injected through the anus twice a day for about 1 month."}, "[6]": {"test_system": "intestinal Behçet's disease", "experiment": "Clinical effects in a patient of Behçet's disease", "format": "in vivo, human patient", "settings": "person", "from_the_text": "The patient was a person, whose illness had been diagnosed as intestinal Behçet's disease accompanying with the multiple ulcerative lesion at the small intestine, and who had been medically treated (i.e., administration of a steroid, etc.). Then, the patient was operated surgically twice to excise the intestine on account of massive melena and regional peritonitis but the lesion of the remaining intestine was exacerbated, and further ileus, melena, and peritonitis symptoms caused by anastomotic recrudescence appeared. In order to excise the injured intestine, the abdomen of the patient was incised, but the injured area was so large that the intestine could not be excised, so that a loop ileal artificial anus was installed for administration of Ecabet sodium.\nEcabet sodium was administered to the patient mentioned above. That is, Ecabet sodium-containing granules (1.5 g) were orally administered twice a day. Further, said granules (1.5 g) were pulverized in a mortar, suspended in water, and the resultant was directly administered into the intestine through the artificial anus twice a day. After the administration of Ecabet sodium, the pain and the melena disappeared in a several days."}, "[7]": {"test_system": "left-sided colon ulcerative colitis", "experiment": "Clinical effects in ulcerative colitis (Experiments 5-7)", "format": "in vivo, human patient", "description": "The patient was a person, whose illness was diagnosed as left-sided colon ulcerative colitis. The patient was medicated with mesalazine and a steroid, and treated with leukocytapheresis, but the rectal lesion was remained, and the symptoms were not improved any further. The inflammation was scored as Matts Grade 3 (Quarterly Journal of Medicine, New Series, No. 120, October 1961), and it was so frail that it bled when the endoscopic examination was carried out.\n(§1) Ecabet sodium was administered to the patient mentioned above. That is, Ecabet sodium-containing granules (1.5 g) were pulverized in a mortar, suspended in a physiological saline (20 ml), and the resultant was rectally administered through the anus twice a day. After the administration, the inflammation was remitted to Matts Grade 2, and the inflammation area was decreased.\nThe patient was a person, whose illness was diagnosed as left-sided colon ulcerative colitis. The patient was medicated with mesalazine, predonine and a steroid, by which the inflammation was controlled to a degree of disseminated ulcer at the rectum, but further improvement was not obtained.\nas §1, with “ulcer” for “inflammation”, “improved into a red scar.” for “remitted to Matts Grade 2, and the inflammation area was decreased.”\nThe patient was a person, whose illness was diagnosed as left-sided colon ulcerative colitis. The patient was medicated with salazosulfapyridine and predonine, and treated with leukocytapheresis, but the inflammation condition at the rectum could not be controlled, and the bleeding and the melena lasted.\nEcabet sodium was administered to the patient mentioned above. That is, Ecabet sodium-containing granules (1.5 g) were pulverized in a mortar, suspended in a physiological saline (20 ml), and the resultant was rectally administered through the anus twice a day."}, "[8]": {"settings": "compared with the disodium salt; cited from earlier work"}, "[9]": {"settings": "Ecabet sodium-containing granules 0.5 g in saline intra-rectally 1 h before 25% acetic acid, intestine excised 2 h after acetic acid, mean ± s.e. of sum of scores (0-3) of 4 items"}, "[10]": {"settings": "Fischer rats 3 weeks after TNBS 50 mg/kg, granules 0.5 g intra-rectally 30 min before 25% acetic acid, 2 h after acetic acid, P < 0.05 vs saline"}}, "note": "“Also recorded” adds a separate entry of the source. Counter-ions that a name gives are not always drawn.", "data": [{"smiles": "CC(C)c1cc2c(cc1S(=O)(=O)O)[C@@]1(C)CCC[C@@](C)(C(=O)O)[C@@H]1CC2", "note": "[Ecabet sodium, (+)-(1R,4aS,10aR)-1,2,3,4,4a,9,10,10a-octahydro-1,4a-dimethyl-7-(1-methylethyl)-6-sulfo-1-phenanthrenecarboxylic acid 6-sodium salt pentahydrate]", "values": [{"measurement": "ileum pouchitis and ulcer outcome", "setting": "[1]", "value": "cured without any cicatricial stenosis"}, {"measurement": "injury of the intestinal mucosa (endoscope)", "setting": "[2]", "value": "disappeared"}, {"measurement": "Degree of Histological Injury", "setting": "[3]; [9]", "value": "2.3 ± 0.4"}, {"measurement": "Degree of Macroscopic Injury", "setting": "[3]; [9]", "value": "1.3 ± 0.2"}, {"measurement": "intestinal mucosal injury induced by acetic acid (observation)", "setting": "[3]; versus physiological saline-treated rats (injury broadly observed)", "value": "hardly observed"}, {"measurement": "Degree of Histological Injury", "setting": "[4]; [10]", "value": "4.6 ± 0.4"}, {"measurement": "Degree of Macroscopic Injury", "setting": "[4]; [10]", "value": "3.9 ± 0.3"}, {"measurement": "intestinal mucosal injury (observation)", "setting": "[4]; TNBS-enteritis Fischer rats, versus physiological saline-treated rats", "value": "effectively inhibited"}, {"measurement": "acute hemorrhagic rectal ulcer outcome", "setting": "[5]; Experiment 8, person, granules 1.5 g in water through the anus twice a day for about 1.5 month", "value": "cured without any cicatricial stenosis"}, {"measurement": "acute hemorrhagic rectal ulcer outcome", "setting": "[5]; Experiment 9, person, granules 1.5 g in water through the anus twice a day for about 2.5 months", "value": "cured without any cicatricial stenosis"}, {"measurement": "acute hemorrhagic rectal ulcer outcome", "setting": "[5]; Experiment 10, person, granules 1.5 g in water through the anus twice a day for about 1 month", "value": "cured without any cicatricial stenosis"}, {"measurement": "ulcerative lesion in the endoscopic finding", "setting": "[6]; 2 weeks after the start of the administration", "value": "remarkably improved"}, {"measurement": "recrudescence", "setting": "[6]; 7 months after the start of the administration", "value": "has not been observed"}, {"measurement": "pain and melena", "setting": "[6]; granules 1.5 g orally twice a day plus 1.5 g through artificial anus twice a day, in a several days", "value": "disappeared"}, {"measurement": "Inflammation, Matts Grade, after the administration", "setting": "[7]; Experiment 5, person, granules 1.5 g in saline 20 ml rectally twice a day, Matts Grade 3 before", "value": "Grade 2"}, {"measurement": "Area of inflammation after the administration", "setting": "[7]; Experiment 5, person, granules 1.5 g rectally twice a day", "value": "decreased; also recorded: reduced"}, {"measurement": "inflammation of the intestine tissue at the lesion (endoscope)", "setting": "[7]; Experiment 5, 11 days after the start of the administration", "value": "remarkably improved"}, {"measurement": "ulcer at the rectum after the administration (endoscope)", "setting": "[7]; Experiment 6, person, granules 1.5 g in saline 20 ml rectally twice a day, 18 days, intractable ulcer before", "value": "turned into a red scar; also recorded: Improvement into a red"}, {"measurement": "inflammation condition after the administration", "setting": "[7]; Experiment 7, person, granules 1.5 g in saline 20 ml rectally twice a day, mild to moderate inflammation before", "value": "only a slight erythema was remained; also recorded: Improvement into a slight"}, {"measurement": "inflammation of the lesion (endoscope)", "setting": "[7]; Experiment 7, 12 days after the start of the administration", "value": "almost disappeared"}]}, {"smiles": "CC(C)c1cc2c(cc1S(=O)(=O)[O-])[C@@]1(C)CCC[C@@](C)(C(=O)O)[C@@H]1CC2.[Na+]", "note": "[Sulfodehydroabietic acid monosodium salt]", "values": [{"measurement": "hygroscopicity", "setting": "[8]", "value": "less hygroscopic"}, {"measurement": "stability", "setting": "[8]", "value": "more stable"}]}]}
